One assay relates to L1210 leukemia cells. Description: Inhibition of proliferation of L1210 leukemia cells (trypan blue count of surviving cells after 4 days). It counts as cell-based. The following applies: RPMI medium with 10% FCS, 37°C, ratio of proliferation against 0.1% ethanol control. As to the method: Measurement of the action of inhibiting proliferation of […] leukemia cell:-
L1210 leukemia cells were added to an RPMI medium containing 10% FCS (fetal calf serum), and the concentration of the cells was adjusted to 1 × 10^5 cells/ml. […] Prior to use, the final concentration of the ethanol solution was adjusted to less than 0.1%, and it was added to the culture medium. The culture medium was then maintained at 37°C in a stationary condition for 4 days. After the cultivation, the number of surviving cells was measured by dyeing with trypan flue. As a control, 0.1% ethanol was used. A dose-reaction curve was plotted from the ratios of proliferation against the control, and IC50 was determined.

A further assay relates to blood pressure. Put plainly: Hypotensive activity by intravenous injection under anesthesia. As to conditions: anesthetized rats, i.v.; dosage which caused a 20% lowering of the mean blood pressure. Format: in vivo, Male wister rats. As to the method:
Measurement of the hypotensive activity:-
The actions of the 5-thiaprostaglandin of the invention on the blood pressure was examined by intravenous injection under anesthesia.
Male wister rats weighing about 250 g were used. Urethane (500 mg/kg) and a-chloralose (100 mg/kg) were intraperitoneally administered to the rats. The rats were anesthetized and fixed in place.
Each of the test compounds was dissolved in a small amount of ethanol and diluted with physiological saline to adjust the final ethanol concentration to not more than 5%. The solution was intravenously injected into the rats through a catheter inserted into the femoral vein.
The blood pressure of the rats was measured by a pressure transducer through a catheter inserted into the carotid artery of the rats.
The action of the test compound on the blood pressure was expressed as the dosage (ED20, u/kg) of the test compound which caused a 20% lowering of the mean blood pressure before administration of the compound.

The subject of a further assay is ethanol ulcer. Description: Ethanol ulcer test (inhibitory activity on ethanol ulcer). The following applies: rats; for Ulcer index (mm): 75% ethanol 30 min later, stomach examined 1 h later; for ED50: p.o., ethanol ulcer. Format: in vivo, SD-strain rats. How it is done: Measurement of inhibitry activity on ethanol ulcer:- An ethanol ulcer test was carried out by the following processure. SD-strain rats (body weight 200 to 220 g; 7 weeks old) were fasted for 24 hours, and a solution of each of the test compounds in physiological saline buffered with phosphate buffer at pH 7.5 was orally administered. Thirty minutes after the administration, 75% ethanol was orally administered in a dose of […]. One hour later, the abdomen was incised to isolate the stomach. […] The total of these lengths was defined as the ulcer index. A control group was given physiological saline buffered with phosphate buffer (pH 7.5) and 75% ethanol.

In another assay the test system is platelet aggregation. Put plainly: In vitro inhibition of ADP-induced platelet aggregation in platelet-rich plasma (aggregometer). It counts as cell-based, Japanese domestic white male rabbits. As to the method: in vitro inhibitory activity of platelet aggregation:-
The in vitro platelet aggregation imhibiting activity of the compounds of the invention were examined by using rabbits. Blood was withdrawn from the ear vein of Japanese domestic white male rabbits weighing 2.5 to 3.5 kg. A mixture of a 3.8% trisodium citrate solution and the blood in a ratio of 1:9 was centrifuged at a speed of 1000 rpm for 10 minutes. The upper layer was separated as platelet- rich plasma (PRP). The lower layer was further centrifuged at a speed of 28000 rpm for 10 minutes. The upper layer was separated as platelet-poor plasma (PPP). The number of platelets was adjusted to 6 x 10^5/µℓ to 7 x 10^5/µℓ by diluting the PRP with PPP. 25 microliters of the test compounds prepared as shown below was added in an amount of 25 to 250 microliters of PRP after the adjustment, and the mixture was pre-incubated at 37°C for 2 minutes, and then 10 µM (final) of ADP was added. By using an aggregometer, changes in transmission were recorded.
The drug was dissolved in ethanol to a concentration of 10 mg/mt, and successively diluted with phosphate buffer (pH 7.4) prior to use.
The rate of inhibition of platelet aggregation was determined from the following equation. [formula] • T: the transmittance of the system containing the phosphate buffer, • T : the transmittance of the system to which the test drug was added.
The minumum concentration of the drug which inhibited more than 50% of platelet aggregation was shown as an IC50 value.

These results are taken from EP0112633A2, “Novel 5-thiaprostaglandin, process for production thereof, and pharmaceutical use thereof” (TEIJIN LIMITED, priority 1982, dated 1984).

Converted amounts (≈) assume the structure as drawn. Like-named read-outs stand apart in the source and are kept apart here.

For 5-thiaprostaglandin E1 methyl ester, in the assay on L1210 leukemia cells, the 50% inhibitory concentration (IC50) (as a rule, the concentration at which inhibition is half-maximal) was found to be 0.6 µg/mL.
As to “17(S),20-dimethyl-5-thiaprostaglandin E1 methyl ester”, in the assay with blood pressure, the ED20 was 2.7 µg/kg. Moreover, the “Ulcer inhibiting rate (%)” value with ethanol ulcer (p.o. 0.3 µg/kg) worked out at 46.8%; in the assay with ethanol ulcer (p.o. 1 µg/kg), 97.7%; with ethanol ulcer (p.o. 3 µg/kg), 100%. Moreover, the “Ulcer index (mm)” value was 18.4 ±4.3 mm in the assay on ethanol ulcer (p.o. 0.3 µg/kg), 0.8 ±0.6 mm in the assay with ethanol ulcer (p.o. 1 µg/kg) and 0 mm in the assay on ethanol ulcer (p.o. 3 µg/kg). In addition, the ED50 – broadly, the dose that gives a 50% effect, or the effect in half of the subjects – in the assay with ethanol ulcer amounted to 0.35 µg/kg. The compound further displayed an IC50 in the assay on platelet aggregation (rabbit PRP, 10 µM (final) ADP, minimum concentration which inhibited more than 50% of platelet aggregation) of 0.33 µg/mL.
For the compound `CCCCCC(O)C=CC1C=CC(=O)C1=CCSCCCC(=O)OC` (centres unmarked) [12-epimer of (7E)-Δ^7-5-thiaprostaglandin A1 methyl ester], in the assay with L1210 leukemia cells, the IC50 is 0.3 µg/mL.
As for `CCCC[C@@H](C)C[C@H](O)/C=C/[C@H]1[C@H](O)CC(=O)[C@@H]1CCSCCCC(=O)OC` [17(R),20-dimethyl-5-thiaprostaglandin E1 methyl ester], in the assay with platelet aggregation (Oryctolagus cuniculus, rabbit PRP, 10 µM (final) ADP, minimum concentration which inhibited more than 50% of platelet aggregation, read-out: IC50), the IC50 came to 0.36 µg/mL (≈ 0.868 µM).
Take `CCCCC[C@H](O)/C=C/[C@H]1C=CC(=O)/C1=C/CSCCCC(=O)OC` [(7E)-Δ^7-5-thiaprostaglandin A1 methyl ester]: the IC50 with L1210 leukemia cells (Mus musculus, 96 h, read-out: IC50) came to 0.2 µg/mL.
Take `CCCCC[C@H](O)/C=C/[C@H]1[C@H](O)CC(=O)[C@@H]1CCCCCCC(=O)O` [Prostaglandin E1, reference compound]: in the assay with ethanol ulcer (Rattus norvegicus, po, p.o. 3 µg/kg, read-out: Ulcer inhibiting rate (%)), the inhibition at 0.003 mg/kg is 50%. For the same compound, the inhibition at 0.01 mg/kg with ethanol ulcer (Rattus norvegicus, po, p.o. 10 µg/kg, read-out: Ulcer inhibiting rate (%)) came out at 96.2%. Also, the ED50 in the assay with ethanol ulcer (Rattus norvegicus, po, read-out: ED50) was 3 µg/kg. The “Ulcer index (mm)” value is on record as 17.1 ±5.5 mm with ethanol ulcer (p.o. 3 µg/kg) and 1.3 ±0.8 mm in the assay on ethanol ulcer (p.o. 10 µg/kg). The half-inhibitory concentration (IC50) in the assay on platelet aggregation (Oryctolagus cuniculus, Platelet, in vitro, ADP 10 µM (printed "ADPlOpM"), read-out: inhibiting platelet aggregation activity (IC50)) is 0.03 µg/mL (≈ 0.0846 µM).
“(7E)-Δ^7-5-thiaprostaglandin E1 methyl ester and its 15-epimer [A mixture of (7E)-Δ^7-5-thiaprostaglandin E1 methyl ester of its 15-epimer]”: the IC50 with L1210 leukemia cells amounted to 0.4 µg/mL.
